{"source": "ChEMBL document CHEMBL2073956", "about": "“ATP-dependent transport of bile salts by rat multidrug resistance-associated protein 3 (Mrp3)” (J Biol Chem, 2000)", "molecules": {"B1": {"name": "ATP-binding cassette sub-family C member 3 (Rattus norvegicus) (protein)", "chain": "MDRLCGSGELGSKFWDSNLTVYTNTPDLTPCFQNSLLAWVPCIYLWAALPCYLFYLRHHRLGYIVLSCLSRLKTALGVLLWCISWVDLFYSFHGLVHGSSPAPVFFITPLLVGITMLLATLLIQYERLRGVRSSGVLIIFWLLCVICAIIPFRSKILLALAEGKILDPFRFTTFYIYFALVLCAFILSCFQEKPPLFSPENLDTNPCPEASAGFFSRLSFWWFTKLAILGYRRPLEDSDLWSLSEEDCSHKVVQRLLEAWQKQQTQASGPQTAALEPKIAGEDEVLLKARPKTKKPSFLRALVRTFTSSLLMGACFKLIQDLSPSSTHSCSASSSGLFRPHGPYWWGFLLAGLMFVSSTMQTLILHQHYHCIFVMALRIRTAIIGVIYRKALTITNSVKREYTVGEMVNLMSVDAQRFMDVSPFINLLWSAPLQVILAIYFLWQILGPSALAGVAVIVLLIPLNGAVSMKMKTYQVQQMKFKDSRIKLMSEILNGIKVLKLYAWEPTFLEQVEGIRQGELQLLRKGAYLQAISTFIWVCTPFMVTLITLGVYVCVDKNNVLDAEKAFVSLSLFNILKIPLNLLPQLISGMTQTSVSLKRIQDFLNQDELDPQCVERKTISPGRAITIHNGTFSWSKDLPPTLHSINIQIPKGALVAVVGPVGCGKSSLVSALLGEMEKLEGAVSVKGSVAYVPQQAWIQNCTLQENVLFGQPMNPKRYQQALETCALLADLDVLPGGDQTEIGEKGINLSGGQRQRVSLARAVYSDANIFLLDDPLSAVDSHVAKHIFDQVIGPEGVLAGKTRVLVTHGISFLPQTDFIIVLADGQITEMGHYSELLQHDGSFANFLRNYAPDENQEANEGVLQHANEEVLLLEDTLSTHTDLTDTEPAIYEVRKQFMREMSSLSSEGEGQNRPVLKRYTSSLEKEVPATQTKETGALIKEEIAETGNVKLSVYWDYAKSVGLCTTLFICLLYAGQNAVAIGANVWLSAWTNDVEEHGQQNNTSVRLGVYATLGILQGLLVMLSAFTMVVGAIQAARLLHTALLHNQIRAPQSFFDTTPSGRILNRFSKDIYVIHEVLAPTILMLFNSFYTSISTIVVIVASTPLFCVVVLPLAVFYGFVQRFYVATSRQLKRLESVSRSPIFSHFSETVTGTSVIRAYGRVQDFKVLSDAKVDSNQKTTYPYIASNRWLGVHVEFVGNCVVLFSALFAVIGRNSLNPGLVGLSVSYALQVTLSLNWMIRTLSDLESNIIAVERVKEYSKTETEAPWVLESNRAPEGWPRSGVVEFRNYSVRYRPGLELVLKNLTLHVQGGEKVGIVGRTGAGKSSMTLCLFRILEAAEGEIFIDGLNVAHIGLHDLRSQLTIIPQDPILFSGTLRMNLDPFGRYSDEDIWRTLELSHLSAFVSSQPTGLDFQCSEGGDNLSVGQRQLVCLARALLRKSRVLVLDEATAAIDLETDDLIQGTIRTQFEDCTVLTIAHRLNTIMDYNRVLVLDKGVVAEFDSPVNLIAAGGIFYGMAKDAGLA"}}, "type_in_all_cases": "functional, cell membranes, Membrane vesicle", "key": {"[1]": {"biological_target": "T1, Mrp3 (ATP-binding cassette sub-family C member 3) (Rattus norvegicus, UniProt O88563)", "assay": "TP_TRANSPORTER: inhibition of Taurocholate uptake (Taurochorate: 1.2 uM, TLCAS: 20 uM) in membrane vesicles isolated from Mrp3-expressing LLC-PK1 cells", "parameters": "scale not given: the % may be the effect or the level left", "settings": "pig, probe taurocholate, read-out: Activity"}, "[2]": {"biological_target": "T1, Mrp3 (ATP-binding cassette sub-family C member 3)", "assay": "(§1) TP_TRANSPORTER: uptake in membrane vesicles isolated from Mrp3-expressing LLC-PK1 cells", "settings": "pig, membrane vesicles from Mrp3-expressing LLC-PK1 cells"}, "[3]": {"biological_target": "T2, ATP-binding cassette sub-family C member 3 (MRP3) (Rattus norvegicus, UniProt O88563)", "assay": "TP_TRANSPORTER: inhibition of E217betaG uptake (E217betaG: 0.055 uM, TLC-S: 20 uM) in membrane vesicles from LLC-PK1 cells", "parameters": "scale not given: the % may be the effect or the level left", "settings": "pig, probe E217betaG, read-out: Activity"}, "[4]": {"biological_target": "T3, ATP-binding cassette sub-family C member 3 (Rattus norvegicus, UniProt O88563)", "assay": "as §1", "settings": "pig, llc-pk1"}, "[5]": {"biological_target": "T3, ATP-binding cassette sub-family C member 3", "assay": "(§2) TP_TRANSPORTER: uptake in membrane vesicles from LLC-PK1 cells", "settings": "pig"}, "[6]": {"biological_target": "T3, ATP-binding cassette sub-family C member 3", "assay": "TP_TRANSPORTER: inhibition of E217betaG uptake (E217betaG: 0.055 uM, TCDC-S: 50 uM) in membrane vesicles isolated from Mrp3-expressing LLC-PK1 cells", "parameters": "scale not given: the % may be the effect or the level left", "settings": "pig, llc-pk1, 50 µM"}, "[7]": {"biological_target": "T2, ATP-binding cassette sub-family C member 3 (MRP3)", "assay": "TP_TRANSPORTER: inhibition of Taurocholate uptake (Taurochorate: 1.2 uM, TCDC-S: 50 uM) in membrane vesicles from LLC-PK1 cells", "parameters": "scale not given: the % may be the effect or the level left", "settings": "pig, probe taurocholate, read-out: Activity"}, "[8]": {"biological_target": "T2, ATP-binding cassette sub-family C member 3 (MRP3)", "assay": "TP_TRANSPORTER: inhibition of E217betaG uptake (E217betaG: 0.055 uM, TCDC-S: 50 uM) in membrane vesicles from LLC-PK1 cells", "parameters": "scale not given: the % may be the effect or the level left", "settings": "pig, probe E217betaG, read-out: Activity"}, "[9]": {"biological_target": "T1, Mrp3 (ATP-binding cassette sub-family C member 3)", "assay": "TP_TRANSPORTER: inhibition of Taurocholate uptake (TCDC-S: 50 uM) in membrane vesicles isolated from Mrp3-expressing LLC-PK1 cells", "parameters": "scale not given: the % may be the effect or the level left", "settings": "pig, probe taurocholate, read-out: Activity"}, "[10]": {"biological_target": "T2, ATP-binding cassette sub-family C member 3 (MRP3)", "assay": "TP_TRANSPORTER: inhibition of E217betaG uptake (E217betaG: 0.055 uM, GC: 200 uM) in membrane vesicles from LLC-PK1 cells", "parameters": "scale not given: the % may be the effect or the level left", "settings": "pig, probe E217betaG, read-out: Activity"}, "[11]": {"biological_target": "T2, ATP-binding cassette sub-family C member 3 (MRP3)", "assay": "TP_TRANSPORTER: inhibition of Taurocholate uptake (Taurochorate: 1.2 uM, CA: 500 uM) in membrane vesicles from LLC-PK1 cells", "parameters": "scale not given: the % may be the effect or the level left", "settings": "pig, probe taurocholate, read-out: Activity"}, "[12]": {"biological_target": "T1, Mrp3 (ATP-binding cassette sub-family C member 3)", "assay": "TP_TRANSPORTER: inhibition of E217betaG uptake (E217betaG: 0.055 uM, GC: 200 uM) in membrane vesicles isolated from Mrp3-expressing LLC-PK1 cells", "parameters": "scale not given: the % may be the effect or the level left", "settings": "pig, probe E217betaG, read-out: Activity"}, "[13]": {"biological_target": "T3, ATP-binding cassette sub-family C member 3", "assay": "TP_TRANSPORTER: inhibition of Taurocholate uptake (Taurochorate: 1.2 uM, GC: 50 uM) in membrane vesicles isolated from Mrp3-expressing LLC-PK1 cells", "parameters": "scale not given: the % may be the effect or the level left", "settings": "pig, llc-pk1, 50 µM"}, "[14]": {"biological_target": "T2, ATP-binding cassette sub-family C member 3 (MRP3)", "assay": "TP_TRANSPORTER: inhibition of Taurocholate uptake (Taurochorate: 1.2 uM, E217betaG: 75 uM) in membrane vesicles from LLC-PK1 cells", "parameters": "scale not given: the % may be the effect or the level left", "settings": "pig, probe taurocholate, read-out: Activity"}, "[15]": {"biological_target": "T1, Mrp3 (ATP-binding cassette sub-family C member 3)", "assay": "TP_TRANSPORTER: inhibition of Taurocholate uptake (Taurochorate: 1.2 uM, E217betaG: 200 uM) in membrane vesicles isolated from Mrp3-expressing LLC-PK1 cells", "parameters": "scale not given: the % may be the effect or the level left", "settings": "pig, probe taurocholate, read-out: Activity"}, "[16]": {"substrate": "[H][C@]12CC[C@]3([H])[C@]([H])(CC[C@]4(C)C([C@H](C)CCC(=O)NCCS(=O)(=O)O)CC[C@@]34[H])[C@@]1(C)CC[C@@H](OS(=O)(=O)O)C2", "assay": "as §2"}}, "note": "Structures can show the parent of a compound that is named as a salt.", "data": [{"molecule": "C[C@H](CCC(=O)NCCS(=O)(=O)O)C1CC[C@H]2[C@@H]3CC[C@@H]4C[C@H](OS(=O)(=O)O)CC[C@]4(C)[C@H]3CC[C@]12C", "note": "(stereo partly drawn)", "values": [{"measurement": "activity at 20 µM", "setting": "[1]", "value": 12.2, "unit": "%"}, {"measurement": "Km", "setting": "[2]", "value": 3.06, "unit": "µM"}, {"measurement": "activity at 20 µM", "setting": "[3]", "value": 15.5, "unit": "%"}]}, {"molecule": "C[C@H](CCC(=O)NCCS(=O)(=O)O)C1CC[C@H]2[C@@H]3[C@H](O)C[C@@H]4C[C@H](OS(=O)(=O)O)CC[C@]4(C)[C@H]3CC[C@]12C", "note": "(stereo partly drawn) [TAUROCHENODEOXYCHOLATE SULFATE]", "values": [{"measurement": "Activity", "setting": "[4]", "value": "substrate [+]"}, {"measurement": "Activity", "setting": "[5]", "value": "substrate [+]"}, {"measurement": "Activity", "setting": "[6]", "value": 26.2, "unit": "%"}, {"measurement": "activity at 50 µM", "setting": "[7]", "value": 27.8, "unit": "%"}, {"measurement": "activity at 50 µM", "setting": "[8]", "value": 26.2, "unit": "%"}, {"measurement": "activity at 50 µM", "setting": "[9]", "value": 27.8, "unit": "%"}]}, {"molecule": "C[C@H](CCC(=O)NCC(=O)O)[C@H]1CC[C@H]2[C@@H]3[C@H](O)C[C@@H]4C[C@H](O)CC[C@]4(C)[C@H]3C[C@H](O)[C@]12C", "note": "[GLYCOCHOLIC ACID]", "values": [{"measurement": "activity at 200 µM", "setting": "[10]", "value": 13.9, "unit": "%"}, {"measurement": "activity at 500 µM", "setting": "[11]", "value": 0, "unit": "%"}, {"measurement": "Activity", "setting": "[4]", "value": "substrate [+]"}, {"measurement": "Activity", "setting": "[5]", "value": "substrate [+]"}, {"measurement": "activity at 200 µM", "setting": "[12]", "value": 13.9, "unit": "%"}, {"measurement": "Activity", "setting": "[13]", "value": 16, "unit": "%"}]}, {"molecule": "C[C@]12CC[C@@H]3c4ccc(O)cc4CC[C@H]3[C@@H]1CC[C@@H]2O[C@@H]1O[C@H](C(=O)O)[C@@H](O)[C@H](O)[C@H]1O", "note": "[ESTRADIOL 17B GLUCURONIDE]", "values": [{"measurement": "activity at 75 µM", "setting": "[14]", "value": 78.4, "unit": "%"}, {"measurement": "activity at 200 µM", "setting": "[15]", "value": 78.4, "unit": "%"}]}, {"molecule": "B1", "values": [{"measurement": "Km", "setting": "[16]", "value": 3.06, "unit": "µM"}]}]}
